Data set [1] concerns hind footpad (murine dermis). Conditions: mouse, in vivo.
Protocol: (§1) Footpad Assay. 0.05 ml of PBS containing a test substance was injected intradermally into the right hind footpad of each mouse. An identical amount of diluent, not containing the test substance, was injected into the left hind footpad. At various time points, footpad thicknesses were measured with a spring loaded engineer's micrometer (Fowler Co., Biggswald, England).
(§2) At various time points, mice were sacrificed and footpad tissue was prepared for light microscopy. This tissue was used to quantify infiltrating cell types. Biopsy specimens were fixed in 10% buffered formalin for at least 48 hours and then prepared using standard techniques of paraffin embedding and staining with hematoxylin and eosin. Using an ocular grid, four cellular areas of dermis in each specimen were examined in a coded fashion at 1000× magnification and inflammatory cells were quantified. Differences between groups were assessed by Student's t test or analysis of variance, where appropriate.
(§3) For each mouse, 0.05 mg, slow release indomethacin pellets (Innovative Research, Toledo, Ohio) were implanted subcutaneously under light ether anesthesia 48 hours prior to an experiment. These pellets continuously release their contents over 14 days.
The test system of data set [2] is angiogenesis on the CAM. Description: Chicken chorioallantoic membrane (CAM) assay. The format is in vivo. Conditions: for biological activity in the CAM assay: Table 4, compared with rPF4-211. As to the method:
Chicken Chorioallantoic Membrane (CAM) Assay. Fertile eggs were incubated in a stationary position for 3 days at 37° C. and 70-80% relative humidity. During this time, the embryo rose to the upper surface of the egg contents. At the beginning of the 4th day, the eggs were cracked without inversion and carefully deposited into sterile plastic petri dishes such that the embryo remained on the upper surface. The shell-free eggs were incubated for an additional 72 hours at 37° C., under an atmosphere containing 2.5-3.5% CO2 after which the growing embryos developed a recognizable CAM. Discs, made by mixing test samples with 1% (w/v) methylcellulose, were dried and placed on the CAM between major veins and approximately 0.5 cm from the embryo. Following another 48 hour incubation at 37° C. (2.5-3.5% CO2), the samples were scored for their ability to inhibit angiogenesis. Inhibition appears as an avascular zone surrounding the implant and can often include elbows formed by veins avoiding the disc and a reduced number of capillaries in the region of the implant.

For data set [3], the system named is Human umbilical vein endothelial cells (HUVEC). Description: Endothelial cell proliferation assay. The format is cell-based. The note with it: for biological activity in the HUVEC assay: Table 4, compared with rPF4-211; for inhibition of human umbilical vein endothelial cell proliferation: FIG. 6. As to the method:
Endothelial Cell Proliferation Assay. Human umbilical vein endothelial cells (HUVEC) were cultured in Medium 199 (Gibco) containing 10% (v/v) fetal bovine serum (FBS), 150 mcg/ml endothelial cell growth supplement (ECGS) and 5 units/ml heparin at 37° C. and 4-5% CO2. Every 3-4 days, the cultures were harvested by trypsin treatment, diluted, replated, and grown to confluence. Prior to the start of an experiment, the cells were centrifuged and resuspended in heparin-free media and incubated with the test substance (PF4) for 3 days under standard culture conditions. At the end of the incubation period, the cells were removed by trypsin treatment and counted with a Particle Data Elzone 180 Cell Counter. Statistical significance between means was determined by a standard Student t-test for unpaired data. […]

The subject of data set [4] is heparin inhibition of Factor Xa. Description: Factor Xa assay of heparin binding (prevention of heparin inhibition). The format is biochemical. From the text: The lysine rich region of PF4 (residues 61-66) is also the domain associated with the binding of heparin by PF4. Heparin is known to play a role in modulating angiogenesis, which can also be affected by protamine, another well characterized heparin-binding protein. To assess the ability of PF4-based synthetic peptides to bind heparin, we assayed the activity of coagulation-cascade enzymes which are inhibited by heparin. The Factor Xa assay used here has previously been described in Denton et al. (1983) Biochem. J. 209:455-460.

Data set [5] concerns heparin inhibition of thrombin. Description: Thrombin assay of heparin binding (prevention of heparin inhibition). The note with it: C-13: even at ten times an effective level of rPF4. The format is biochemical.
Data set [6] relates to B16-F10 melanoma tumor line. Description: In vivo tumor growth assay, injection into the nascent tumor. Set-up: species or system C57BL/6J female mice. As to the method:
In vivo Tumor Growth Assay. Normal C57BL/6J female mice (6-8 weeks old) were inoculated subcutaneously with 5×10^5 log phase cells of a B16-F10 melanoma tumor line. This protocol led to progressive tumor growth resulting in large (300 mm^3) necrotic tumors after approximately 10 days, followed by death of untreated animals usually within three weeks of tumor inoculation.
To test the efficacy of rPF4 in preventing in vivo tumor growth and angiogenesis, tumor bearing animals were injected daily, directly into the nascent tumor, with either rPF4 or with buffer lacking rPF4, beginning one day after tumor inoculation. Tumor volume was measured at regular intervals with digital calipers by laboratory personnel uninformed of the specific treatment received by each subject animal.
The efficacy of rPF4-211 or rPF4-241 in preventing tumor growth and angiogenesis was tested. The inhibition of in vivo tumor growth was assayed after injection of either rPF4-211 (in 20 mM NaOAc, pH 4.0) or rPF4-241 (in 50 mM sodium phosphate, pH 6.5, 50 mM NaCl) directly into the nascent tumor, as described in the materials and methods section above.

The test system of data set [7] is B16 murine melanoma cell line. Description: Systemic rPF4 against B16 melanoma lung metastases. It counts as in vivo. The note with it: for # of Metastases (#/Mouse) / Lung Wt.: day 21, average of six mice. As to the method:
Cells of a B16 murine melanoma cell line were injected intravenously into a tail vein of a mouse. Thirty seconds later, rPF4 (in saline or acetate buffer) was injected into the same mouse via a different tail vein. After 21 days, the tumor burden of the test and control animals was measured by counting, optically, lung metastases, and by weighing the lungs of the mice. Referring to Table 6, PF4 produced a dose-dependent effect, as measured by both parameters.

The test system of data set [8] is tumor cell growth. Description: Tumor cell growth in vitro. It counts as cell-based.
The test system of data set [9] is Kaposi's sarcoma. Description: Cancers that contain malignant endothelial cells. Conditions: such as Kaposi's sarcoma.
The test system of data set [10] is Implanted tumors. Description: Anti-tumor activity of rPF4 combined with indomethacin. The note with it: s.c. tumors, indomethacin 50 μg slow release pellet; FIG. 10. The format is in vivo, mice. As to the method: Four groups of mice were used in this experiment. In two groups of mice, slow release indomethacin pellets (50 μg) were implanted surgically under the skin of the left flank. The other two groups were not treated with indomethacin. Tumors were implanted subcutaneously in all four groups in the right flank.

For data set [11], the system named is Human umbilical vein endothelial cells (HUVEC). Description: Endothelial cell proliferation assay. The format is cell-based. Conditions: rPF4 50 mcg/ml, 5 u/ml heparin.
Data set [12] relates to hind footpad (murine dermis). Description: Footpad assay (dermal inflammation). Conditions: systemic indomethacin.
Protocol: as §1, §2, §3
The mark [13] stands for this setting: heparin-deficient medium, FIG. 3.
The mark [14] stands for this setting: 0.375 mg rPF4 i.v. (19.7 mg/kg).

Changes are numbered by the printed parent chain. Values joined by “and” are separate entries in the source; they are usually repeats but may differ in a detail not shown here. Equal values may be shown once.

The source of these data is patent publication US5800820A, “Methods and compositions for treatment of angiogenic diseases” (Repligen Corporation, priority 1995, dated 1998).

As usually defined, the % Inhibition is the share of the control response that was lost under treatment.

On to cytochrome c [reference compound], for which the inflammatory response entry in data set [1] is on record as “failed to elicit a significant inflammatory response”.
Consider “rPF4-231: rPF4 mutant that terminates at amino acid number 60: [PF4 AA 1-57] P L Y (EAEEDGDLQCLCVKTTSQVRPRHITSLEVIKAGPHCPTAQLIATLKNGRKICLDLQAPLY; Platelet factor 4 recombinant; UniProt P02776 32-91, looked up, fragment)”, for which the “biological activity in the CAM assay” value in data set [2] is reported as “does not exhibit significant biological activity”. In addition, the “biological activity in the HUVEC assay” value in data set [3] was “does not exhibit significant biological activity”.
With “rPF4: recombinant platelet factor 4 with the wild type sequence, 70 residues; residues 58-70 P L Y K K I I K K L L E S”, the “inhibition of angiogenesis on the CAM” value in data set [2] (discs containing several concentrations, FIG. 2) is listed as “inhibited angiogenesis”. Further, the “prevention of heparin inhibition of Factor Xa” value in data set [4] is recorded as “approximately equimolar concentrations”. Also, the “prevention of heparin inhibition of thrombin” value in [5] is “approximately equimolar concentrations”. The “inhibition of human umbilical vein endothelial cell proliferation” value in [3] is on record as “effective at inhibiting the proliferation”. In addition, in data set [3] (setting [13]), the “concentration at which inhibition of endothelial cell growth was complete” value was 3.2 µM and the “lowest concentration with significant inhibition of endothelial cell growth” value was 1.3 µM. Besides, the “endothelial cell growth (cell count)” value in data set [3] (rPF4 50 mcg/ml, no heparin, three day incubation) came to 6.0 ± 0.6. The “% Inhibition” value in data set [3] (rPF4 50 mcg/ml, no heparin, based on seeding of 8 × 10^4 cells/well) is 100% and ~ 100%. Further, the “time until inhibition of tumor growth was apparent” value in data set [6] (after the initial inoculation of rPF4) is on record as “apparent within three days”. For the same molecule, the “tumor growth on continued treatment” value in [6] (daily injection into the tumor) was “completely suppressed tumor growth”. Also, the tumor status entry in data set [6] (within seven days of tumor inoculation, daily injection into the tumor, FIG. 7) is listed as “essentially tumor-free”. Further, in [7] (setting [14]), the “# of Metastases (#/Mouse)” value is listed as 112.2 #/Mouse and the “Lung Wt.” value amounted to 525 mg. Besides, in data set [7] (0.75 mg rPF4 i.v. (40.1 mg/kg)), the “# of Metastases (#/Mouse)” value is listed as 66.0 #/Mouse and the “Lung Wt.” value was determined as 404 mg. In data set [7] (1.5 mg rPF4 i.v. (84.2 mg/kg)), the “# of Metastases (#/Mouse)” value is 54.7 #/Mouse and the “Lung Wt.” value is 357 mg. For the same molecule, in data set [7] (systemic dosages in excess of 5000 μg per kg of body weight), the “toxicity or other adverse effects” value is reported as “no observable toxicity or other adverse effects”. Besides, the “direct inhibition of tumor cell growth in vitro” value in data set [8] was “did not directly inhibit tumor cell growth in vitro”. Also, the “effect on cancers that contain malignant endothelial cells” value in data set [9] is given as “inhibitory”. The “growth of implanted tumors” value in [10] was “grew very little, if at all”. In [1], the “Pro-inflammatory response Infiltrating” value is recorded as “++”; the “Pro-inflammatory response Swelling” value was “++”; the “composition of the inflammatory infiltrate” value is “composed of neutrophils and to a lesser degree mononuclear cells”; the “onset of acute inflammation” value is reported as “within two hours”. In addition, in data set [11] (three day incubation), the “endothelial cell growth (cell count)” value is 14.0 ± 0.4. Further, in data set [11] (based on seeding of 8 × 10^4 cells/well), the “% Inhibition” value is on record as 45%.
As to `COc1ccc2c(c1)c(CC(=O)O)c(C)n2C(=O)c1ccc(Cl)cc1` [indomethacin], the “growth of implanted tumors” value in [10] is listed as “grew rapidly after day 6”. In addition, in data set [12], the “effect on the inflammatory cell infiltrate induced by rPF4” value was “partially abrogated”. Further, in [12] (FIG. 8), the “effect on the rPF4 pro-inflammatory response” value was “significantly blunts”.
With protamine [reference compound], the “prevention of heparin inhibition of Factor Xa” value in data set [4] is reported as “approximately equimolar concentrations”. In data set [5], the “prevention of heparin inhibition of thrombin” value is recorded as “approximately equimolar concentrations”.
For the molecule polylysine [reference compound], the “inhibition of angiogenesis on the CAM” value in data set [2] (6.5 nmol dosages) was “not to cause inhibition”.
For the molecule “C-41: 41 amino acid C-terminal peptide of PF4 (IKAGPHCPTAQLIATLKNGRKICLDLQAPLYKKIIKKLLES; Platelet factor 4; UniProt P02776 61-101, looked up, fragment)”, the “prevention of heparin inhibition of Factor Xa” value in data set [4] is on record as “prevented heparin inhibition less effectively”. The “prevention of heparin inhibition of thrombin” value in data set [5] is “prevented heparin inhibition less effectively”. For the same molecule, in data set [1], the “Pro-inflammatory response Infiltrating” value was “++”; the “Pro-inflammatory response Swelling” value is reported as “++”; the “composition of the inflammatory infiltrate” value is “composed of neutrophils and to a lesser degree mononuclear cells”; the inflammatory response result was “pro-inflammatory”.

B1: rPF4-241: PF4 mutant, four lysine residues near the C-terminus changed to two Gln-Glu couplets: P L Y Q E I I Q E L L E S (protein, UniProt P02776 32-101, looked up, variant K61Q K62E K65Q K66E)
Platelet factor 4: EAEEDGDLQCLCVKTTSQVRPRHITSLEVIKAGPHCPTAQLIATLKNGRKICLDLQAPLYQEIIQELLES
modifications: Platelet factor 4 recombinant
notes: PF4 mutant, four lysine residues near the C-terminus changed to two Gln-Glu couplets: P L Y Q E I I Q E L L E S
In the case of B1, the “inhibition of angiogenesis in the CAM system” value in data set [2] (1.25 nmol/disc, lowest concentration tested, FIG. 5) is “extensively inhibited angiogenesis”. Also, the “reversal of the inhibitory effect by heparin” value in data set [2] (CAM) was “not reversed by heparin”. The “biological activity in the CAM assay” value in [2] was “enhanced activity”. Also, the “inhibition of angiogenesis compared with native rPF4” value in data set [2] (equal concentrations, larger avascular zones) was “even more effective”. In addition, the heparin-binding activity result in data set [4] (Factor Xa inhibition assay) is “lacked heparin-binding activity”. Also, in [3], the “inhibition of human umbilical vein endothelial cell proliferation” value is listed as “effective at inhibiting the proliferation” and the “biological activity in the HUVEC assay” value is listed as “enhanced activity”. In data set [6] (daily injection into the tumor), the “tumor growth on continued treatment” value is “same effect was observed”. Also, in data set [1], the “Pro-inflammatory response Infiltrating” value was “+” and the “Pro-inflammatory response Swelling” value is listed as “+”.

B2: rPF4-307: rPF4 mutant, C-terminal sequence P L Y Q I E I Q L E L E S (protein, UniProt P02776 32-101, looked up, variant K61Q K62I I63E I64I K65Q K66L L67E L68L)
Platelet factor 4: B1 Platelet factor 4 with E62I, I63E, E66L, L67E
modifications: Platelet factor 4 recombinant
Turning to B2, the “biological activity in the CAM assay” value in [2] is “enhanced activity”. The “biological activity in the HUVEC assay” value in data set [3] is listed as “enhanced activity”.

B3: rPF4-302: rPF4 mutant, C-terminal sequence P L Y Q Q I I Q Q L L E S (protein, UniProt P02776 32-101, looked up, variant K61Q K62Q K65Q K66Q)
Platelet factor 4: B1 Platelet factor 4 with E62Q, E66Q
modifications: Platelet factor 4 recombinant
As to B3, the “biological activity in the CAM assay” value in data set [2] is “does not exhibit significant activity”. Further, the “biological activity in the HUVEC assay” value in data set [3] is reported as “does not exhibit significant activity”.
